Assay results taken from the supplement of paper PMC10627819.

Tests used:
[1] = system: S. pneumoniae D39V; assay: fitness (endpoint OD595 vs no drug) (fraction); higher = more growth
In short: (§1)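 Fitness was defined as the optical density at the transition into stationary phase relative to the robust mean of no-drug control wells. Values were capped at 1. Cultures were started at OD595 0.01 in 384-well plates (30 µl, or 55 µl for S. pneumoniae) in TSB, LB Lennox or CY at 37 °C. OD595 was recorded every 30 min over 14 h, with the first reading subtracted as background.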

[2] = system: B. subtilis 168; assay: as above
In short: as §1

[3] = system: S. pneumoniae D39V; assay: Bliss interaction score (quartile over a dose matrix) (fitness difference); higher = more antagonism (negative = synergy)
In short: (§2)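 Quartiles of the Bliss score were taken over technical, biological and donor/recipient replicates. That score is observed fitness minus the product of the single-drug fitness values, which were inferred from combination data. Fitness itself is OD595 at entry into stationary phase divided by the plate's robust no-drug mean, with a cap at 1.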

[4] = system: S. aureus DSM 20231; assay: as above
In short: as §2

[5] = system: S. aureus Newman; assay: as above
In short: as §2

[6] = system: B. subtilis 168; assay: as above
In short: as §2
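Wherever Bliss interaction score (quartile over a dose matrix) is given: first quartile when negative (synergy) and third quartile when positive (antagonism).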

C[C@H]1c2cccc(O)c2C(=O)C2=C(O)[C@]3(O)C(=O)C(C(N)=O)=C(O)[C@@H](N(C)C)[C@@H]3[C@@H](O)[C@@H]21 [Doxycycline] + CC(C1CCC(C(O1)OC2C(CC(C(C2O)OC3C(C(C(CO3)(C)O)NC)O)N)N)N)NC [Gentamicin]
fitness, [1], one replicate, main component drawn
Conditions	partner 2 µg/mL	partner 4 µg/mL	partner 8 µg/mL
first compound 0.003875 µg/mL	≥ 1	≥ 1	≥ 1
first compound 0.00775 µg/mL	≥ 1	0.995	0.967

main component drawn
Conditions	fitness
[1], first compound 0.0155 µg/mL, partner 2 µg/mL	0.885
[1], first compound 0.0155 µg/mL, partner 4 µg/mL	0.857
[1], first compound 0.0155 µg/mL, partner 8 µg/mL	0.824
[2], first compound 0.02 µg/mL, partner 0.0625 µg/mL	0.896
[2], first compound 0.04 µg/mL, partner 0.0625 µg/mL	0.747
[2], first compound 0.08 µg/mL, partner 0.25 µg/mL	0.0845

main component drawn
Conditions	Bliss interaction score
[3]	-0.208
[4]	0.067
[5]	0.0873
[6]	0.213

COc1cccc2c1C(=O)c1c(O)c3c(c(O)c1C2=O)C[C@@](O)(C(=O)CO)C[C@@H]3O[C@H]1C[C@H](N)[C@H](O)[C@H](C)O1 [Doxorubicin] + C[C@H]1COc2c(N3CCN(C)CC3)c(F)cc3c(=O)c(C(=O)O)cn1c23 [Levofloxacin]
Conditions	fitness
[1], first compound 0.25 µg/mL, partner 0.1725 µg/mL	0.853
[1], first compound 0.25 µg/mL, partner 0.2 µg/mL	0.904
[1], first compound 0.25 µg/mL, partner 0.345 µg/mL	0.776
[1], first compound 0.25 µg/mL, partner 0.4 µg/mL	0.834
[1], first compound 0.25 µg/mL, partner 0.69 µg/mL	0.509
[1], first compound 0.5 µg/mL, partner 0.1725 µg/mL	0.941
[1], first compound 0.5 µg/mL, partner 0.2 µg/mL	0.942
[1], first compound 0.5 µg/mL, partner 0.345 µg/mL	0.871
[1], first compound 0.5 µg/mL, partner 0.4 µg/mL	0.831
[1], first compound 0.5 µg/mL, partner 0.69 µg/mL	0.571
[1], first compound 1 µg/mL, partner 0.1725 µg/mL	0.875
[1], first compound 1 µg/mL, partner 0.2 µg/mL	0.854
[1], first compound 1 µg/mL, partner 0.345 µg/mL	0.798
[1], first compound 1 µg/mL, partner 0.4 µg/mL	0.736
[1], first compound 1 µg/mL, partner 0.69 µg/mL	0.548
[1], first compound 1 µg/mL, partner 0.8 µg/mL	0.342
[2], first compound 0.625 µg/mL, partner 0.002 µg/mL	0.93
[2], first compound 0.625 µg/mL, partner 0.0039 µg/mL	0.927
[2], first compound 0.625 µg/mL, partner 0.0312 µg/mL	0.0411
[2], first compound 0.625 µg/mL, partner 0.0625 µg/mL	0.0463
[2], first compound 0.625 µg/mL, partner 0.125 µg/mL	0.0495
[2], first compound 1.25 µg/mL, partner 0.002 µg/mL	0.901
[2], first compound 1.25 µg/mL, partner 0.0039 µg/mL	0.873
[2], first compound 1.25 µg/mL, partner 0.0312 µg/mL	0.0455
[2], first compound 1.25 µg/mL, partner 0.0625 µg/mL	0.0566
[2], first compound 1.25 µg/mL, partner 0.125 µg/mL	0.0562
[2], first compound 2.5 µg/mL, partner 0.002 µg/mL	0.791
[2], first compound 2.5 µg/mL, partner 0.0039 µg/mL	0.73
[2], first compound 2.5 µg/mL, partner 0.0312 µg/mL	0.031
[2], first compound 2.5 µg/mL, partner 0.0625 µg/mL	0.0389
[2], first compound 2.5 µg/mL, partner 0.125 µg/mL	0.0379

fitness, [2], one replicate
Conditions	first compound 0.625 µg/mL	first compound 1.25 µg/mL	first compound 2.5 µg/mL
partner 0.001 µg/mL	≥ 1	0.98	0.943
partner 0.0078 µg/mL	0.888	0.894	0.567

Conditions	Bliss interaction score
[3]	-0.0424
[4]	0.0678
[5]	0.133
[6]	0.0423

C[C@H]1c2cccc(O)c2C(=O)C2=C(O)[C@]3(O)C(=O)C(C(N)=O)=C(O)[C@@H](N(C)C)[C@@H]3[C@@H](O)[C@@H]21 [Doxycycline] + C[n+]1ccc(-c2cc[n+](C)cc2)cc1 [Paraquat]
fitness, [1], one replicate
Conditions	partner 1.5 µg/mL	partner 3 µg/mL	partner 6 µg/mL
first compound 0.003875 µg/mL	≥ 1	≥ 1	≥ 1
first compound 0.00775 µg/mL	≥ 1	0.962	0.986

Conditions	fitness
[1], first compound 0.0155 µg/mL, partner 1.5 µg/mL	0.979
[1], first compound 0.0155 µg/mL, partner 3 µg/mL	0.975
[1], first compound 0.0155 µg/mL, partner 6 µg/mL	0.978
[1], first compound 0.031 µg/mL, partner 1.5 µg/mL	0.923
[1], first compound 0.031 µg/mL, partner 3 µg/mL	0.877
[1], first compound 0.031 µg/mL, partner 6 µg/mL	0.898
[1], first compound 0.062 µg/mL, partner 1.5 µg/mL	0.845
[1], first compound 0.062 µg/mL, partner 3 µg/mL	0.841
[1], first compound 0.062 µg/mL, partner 6 µg/mL	0.806
[2], first compound 0.02 µg/mL, partner 1.25 µg/mL	0.905
[2], first compound 0.02 µg/mL, partner 2.5 µg/mL	0.86
[2], first compound 0.02 µg/mL, partner 5 µg/mL	0.885
[2], first compound 0.04 µg/mL, partner 1.25 µg/mL	0.828
[2], first compound 0.04 µg/mL, partner 2.5 µg/mL	0.839
[2], first compound 0.04 µg/mL, partner 5 µg/mL	0.772
[2], first compound 0.08 µg/mL, partner 1.25 µg/mL	0.568

Conditions	Bliss interaction score
[3]	0.036
[4]	0.0382
[5]	-0.019
[6]	0.0932

O=C(O)c1cn(C2CC2)c2cc(N3CCNCC3)c(F)cc2c1=O [Ciprofloxacin] + C[C@H]1c2cccc(O)c2C(=O)C2=C(O)[C@]3(O)C(=O)C(C(N)=O)=C(O)[C@@H](N(C)C)[C@@H]3[C@@H](O)[C@@H]21 [Doxycycline]
fitness, [1], one replicate
Conditions	first compound 0.125 µg/mL	first compound 0.25 µg/mL	first compound 0.5 µg/mL
partner 0.003875 µg/mL	≥ 1	0.931	0.804
partner 0.00775 µg/mL	0.967	0.913	0.825

fitness
Conditions	partner 0.0155 µg/mL	partner 0.02 µg/mL	partner 0.031 µg/mL	partner 0.04 µg/mL	partner 0.08 µg/mL
[1], first compound 0.125 µg/mL	0.891	–	0.742	–	–
[1], first compound 0.25 µg/mL	0.892	–	0.703	–	–
[2], first compound 0.0098 µg/mL	–	0.879	–	0.813	0.677
[2], first compound 0.0195 µg/mL	–	0.726	–	0.688	0.58

Conditions	Bliss interaction score
[3]	0.0673
[4]	0.0661
[5]	0.0631
[6]	0.183
